Experimental findings from PMC3823594, “Conformational Changes Underlying Pore Dilation in the Cytoplasmic Domain of Mammalian Inward Rectifier K^+ Channels” (PLoS ONE, 2013) are described below.

Where a chain is given by its changes, count along the chain named.

Assay in all cases: Two-electrode voltage clamp, ACh-dependent (m2R-dependent) K+ current activation
Common to all, as to format: cell-based
(In general: Two-electrode voltage clamp is typically applied to oocytes expressing channels or transporters.)

The target of test [1] is T1, Kir3.2 M313S (Mus musculus, UniProt P48542, I313S).
T1 sequence (P48542 19-425 I313S): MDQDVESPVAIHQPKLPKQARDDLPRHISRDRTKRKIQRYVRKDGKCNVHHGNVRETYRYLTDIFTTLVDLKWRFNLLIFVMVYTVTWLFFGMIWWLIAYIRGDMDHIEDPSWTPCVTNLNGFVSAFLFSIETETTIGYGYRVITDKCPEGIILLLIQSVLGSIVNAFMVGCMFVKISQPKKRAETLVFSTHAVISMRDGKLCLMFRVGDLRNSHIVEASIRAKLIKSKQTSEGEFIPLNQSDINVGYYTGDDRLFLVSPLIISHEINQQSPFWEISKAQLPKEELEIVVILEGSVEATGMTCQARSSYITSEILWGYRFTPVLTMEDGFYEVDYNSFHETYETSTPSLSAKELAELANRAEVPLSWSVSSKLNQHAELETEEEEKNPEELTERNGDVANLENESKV
T1 sequence (P06199 1-466 partner): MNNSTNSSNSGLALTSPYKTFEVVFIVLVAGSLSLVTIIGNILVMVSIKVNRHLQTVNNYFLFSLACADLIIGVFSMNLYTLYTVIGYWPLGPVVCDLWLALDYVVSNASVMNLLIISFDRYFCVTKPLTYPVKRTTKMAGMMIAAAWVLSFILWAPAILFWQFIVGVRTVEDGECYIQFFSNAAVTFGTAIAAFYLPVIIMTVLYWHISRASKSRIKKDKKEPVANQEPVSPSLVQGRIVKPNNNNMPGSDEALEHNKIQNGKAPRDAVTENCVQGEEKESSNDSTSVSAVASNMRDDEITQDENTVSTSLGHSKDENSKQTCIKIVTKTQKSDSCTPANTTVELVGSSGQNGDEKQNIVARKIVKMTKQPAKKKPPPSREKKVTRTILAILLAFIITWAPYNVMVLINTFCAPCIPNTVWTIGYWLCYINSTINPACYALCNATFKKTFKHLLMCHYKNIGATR
Particulars: Kir3.2 M313S with porcine m2R in Xenopus oocytes; −120 mV; Hill equation fit. An excerpt: (§1) The mouse Kir3.2d isoform was subjected to functional analyses. The amino acid numbers correspond to the longest mouse Kir3.2 isoform. Point mutations were introduced using the QuikChange site-directed mutagenesis kit (Stratagene, La Jolla, CA), and the presence of the mutations was confirmed by direct DNA sequencing. The care of Xenopus laevis was in accordance with the guideline of the Institute of Experimental Animal Sciences, Osaka University. The protocol was approved by the Animal Experiment Committee of Osaka University. The frogs were deeply anesthetized by immersing in 0.2% tricaine methanesulfonate for 20 min at 18°C. A portion of an ovary lobe was surgically removed and incubated with collagenase to remove follicular cells. The oocytes were injected with the cRNAs of Kir3.2 and porcine m2-muscarinic receptor (m2R), and maintained in modified Barth’s solution at 18°C with daily solution changes. Electrophysiological studies were undertaken 48–72 h later at room temperature (20–25°C). Two-electrode voltage-clamp recordings from oocytes were performed using a GeneClamp 500B amplifier (Axon Instruments, Sunnyvale, CA). […] The bath solution contained 40 mM KCl, 50 mM NaCl, 3 mM MgCl2, 0.15 mM niflumic acid, and 5 mM HEPES-KOH (pH 7.4). The currents were recorded in the absence or presence of various concentrations of acetylcholine (ACh). Ba^2+ (3 mM) was added at the end of the recording to estimate the endogenous leak current. The data are expressed as mean values ± standard error of the mean. For the quantitative estimation of ACh-dependent current responses of the wild-type (WT) and mutant channels, the current amplitudes at the end of test pulses at each ACh concentration ([ACh]) were fitted using the following equation:
(§2) I=min+[(max−min)/(1+(EC50/[ACh])^nH)]
(§3) where I is the current amplitude measured at the [ACh], n H is the Hill coefficient, and EC50 is the concentration that induces 50% of the maximal response. […] The values of n H and EC50 were calculated using a non-linear least-squares best fit (SigmaPlot 9; Systat Software). Statistical analyses were performed by one-way ANOVA with post-hoc tests.

The target of test [2] is T2, Kir3.2 E236D (Mus musculus, UniProt P48542, E236D).
T2 sequence (P48542 19-425 E236D): T1 sequence (P48542 19-425 I313S) with E218D, S295I
T2 sequence (P06199 1-466 partner): T1 sequence (P06199 1-466 partner)
Conditions: Kir3.2 E236D with porcine m2R in Xenopus oocytes; −120 mV; Hill equation fit.
Excerpt: as §1, §2, §3

In test [3] the target is T3, Kir3.2 M313G (Mus musculus, UniProt P48542, I313G).
T3 sequence (P48542 19-425 I313G): T1 sequence (P48542 19-425 I313S) with S295G
T3 sequence (P06199 1-466 partner): T1 sequence (P06199 1-466 partner)
Particulars: Kir3.2 M313G with porcine m2R in Xenopus oocytes; −120 mV; Hill equation fit.
Excerpt: as §1, §2, §3

Broadly, the Hill coefficient is the slope factor of the fitted curve. On to `CC(=O)OCC[N+](C)(C)C` [ACh, acetylcholine], for which the Hill coefficient is reported as 1.04 ± 0.05 in test [1], 0.74 ± 0.07 in test [2] and 0.98 ± 0.07 in test [3].
